What was measured:
Type in all cases: cell-based, human
[1] = test system: Crohn's disease lamina propria CD8+ T cells; test: In vitro suppression assay, Crohn's disease lamina propria CD8+ T cells (suppression of CD4+ T cell proliferation); conditions: for average suppression percentage (suppressor phenotype): Crohn's disease lamina propria CD8+ cells, relative to CD4+ proliferation with normal unstimulated CD8+ T cells
Method: (§1) Lamina propria lymphocytes were isolated from patients undergoing surgery for Crohn's disease (CD) or colon cancer (representing a normal (NL) T cell population). Lamina propria CD8+ T cells were isolated after overnight incubation and incubated with CEACAM5 peptide for 3 days. CD8+ T cells were then washed and co-cultured with CFSE-CD3/CD28-stimulated CD4+ T cells for 3 days. Suppression of CD4+ T cell proliferation was measured on the 7th day.
(§2) Proliferation of CD4^+ T-cells measured by CFSE dilution was evaluated by flow cytometry. CD4+ T cells were labeled with PE anti-CD4 antibody. Percent suppression was calculated based on equation 1:
(§3) % Supp=100*[1−(%Exp/%Control)] (1)
(§4) where: • %Supp=percent suppression • %Exp=the percentage of proliferating CD4+ T cells in the experimental population • % Control=the percentage of proliferating CD4+ T cells in the control population
as §1, with “peptide or peptide 12” for “peptide”

[2] = test system: LcK phosphorylation in peripheral blood CD8+ T cells; test: In cell western blot LcK phosphorylation assay; conditions: 10 μg/mL, 5, 10, 15 minutes
Method: The library of peptides 1-20 was first evaluated by western blot for their ability to activate CD8+ T cells, as indicated by the ability to stimulate LcK phosphorylation (“pLcK”). Peripheral blood isolated CD8′ T cells (2×10^6) were seeded in a 96-well flat-bottom plate and starved in RPMI serum free medium overnight at 37° C. The next day and prior to performing the experiments, the plate was placed on ice for 15 minutes. Cells were stimulated with OKT8 (5 μg/mL) (a known CD8+ T cell activator), purified CEACAM5 peptide (10 μg/mL), the entire library of peptides (10 μg/mL), Pool 1 (10 μg/mL), Pool 2 (10 μg/mL), Pool 3 (10 μg/mL), or each single N-domain peptide (10 μg/mL). Unstimulated cells were also evaluated for each condition. Prior to these experiments a titration curve was performed for the entire library of peptides. A range of concentration between 1 and 100 μg/mL was tested.
Stimulation was stopped using a 4% formaldehyde buffer for 20 minutes followed by centrifugation for 10 minutes at 1,500 rpm. Permeabilization was performed by washing the cells with 1×PBS containing 0.1% Triton X-100 for 5 minutes per wash. After permeabilization, cells were incubated for 1 hour with a blocking buffer (Odyssey Blocking buffer-LICOR) followed by the primary antibodies (goat anti-actin and rabbit anti-pLcK) overnight at 4° C. The next day, cells were washed 5 times with 1×PBS containing 0.1% Tween 20, incubated for 1 hour at room temperature with the secondary antibodies (IRDye 800CW donkey anti goat IgG, IRDye 680 CW donkey anti rabbit IgG), and then washed five times. Wells were dried and the plate was scanned using an Odyssey LiCOR system. The software ImageJ was used for quantification of pLcK. Each value was calculated using actin expression as a house keeping gene and taking into consideration any background noise. […]

[3] = test system: peripheral blood CD8+ T cells; test: In vitro suppression assay, peripheral blood CD8+ T cells (CFSE CD4+ T cell proliferation); conditions: for suppressor activity acquired by stimulated CD8+ T cells (suppression of CD4+ T cell proliferation): 10 μg/mL, 3 days, co-culture 1:1 with CFSE-labeled CD3/CD28-stimulated CD4+ T cells; for percent suppression of CD4+ T cell proliferation (suppressive activity): single peptide 10 μg/mL, normalized against unstimulated CD8+ T cells
Excerpt: To identify the N-domain peptides that trigger the activation of CD8+ T cells with the suppressor phenotype, peripheral blood CD8^+ T cells and peripheral blood CD4^+ T cells were selected using CD8^+ and CD4^+ T-cell selection kits (Stemcell Technologies, Vancouver, Canada), respectively.
Anti-CD3/CD28 beads were used as positive controls. Cells were then washed, counted, and added at a ratio of 1:1 (2×10^6) to peripheral CD4^+ T cells labeled with carboxyfluorescein succinimidyl ester (CFSE) (Invitrogen, CA), and either unstimulated or stimulated with anti-CD3/CD28 beads.
as §2, §3, §4
These peptides were selected due to their activity in the phosphorylation assay. […] Peptides 13 and 15 were also shown to activate suppression, although to a more modest extent (˜10% suppressive activity).
Finally, peptides a-d (see FIG. 7A) were also evaluated using the same procedure, incubating the cells with each single peptide (10 μg/mL).

[4] = test system: CD8-associated LcK kinase in CD8+ T cells; test: Flow cytometry LcK phosphorylation assay; conditions: 2, 8, 10, 15 minutes at 37° C., peptide 12 at 20 μg/ml
Method: To confirm the ability of peptide 12 to activate CD8+ T cells, a second LcK phosphorylation assay was conducted using flow cytometry. CD8+ T cells were treated for different time points (2, 8, 10, 15 minutes) at 37° C. with H2O2 at 10 mM, CEACAM5 supernatant from PIPLC-293T cells expressing CEACAM5, and peptide 12 (20 μg/ml). Stimulation was stopped by fixing with 4% formaldehyde for 10 minutes at room temperature. Subsequently, cells were permeabilized with ice-cold methanol for 20 minutes, washed with PBS containing 0.2% FBS, and then stained with anti-phospho-Lck Ab (BD Biosciences, San Jose, Calif.). The cells were then re-suspended in PBS plus 0.2% FBS, data were acquired using the FACScan system (LSRFortessa, BD Biosciences), and analyzed with FlowJo analysis software (Ashland, Oreg.).

[5] = test system: normal lamina propria CD8+ T cells; test: Cytokine IL10 production in lamina propria CD8+ T cells; conditions: cultured 3 days; supernatant assessed
Method: Cytokine production in lamina propria CD8+ T cells was evaluated. Normal lamina propria CD8+ and CD4+(control) T cells were cultured for 3 days in presence of OKT8 (control) or either CEACAM5 or peptide 12. The supernatant was then assessed for cytokine production.

[6] = test system: normal lamina propria CD8+ T cells; test: In vitro suppression assay, normal (colon cancer) lamina propria CD8+ T cells; conditions: normal condition (colon cancer biopsies); CD8+ T cells incubated 3 days, vs absence of CEACAM5
Method: as §1
as §1, with “peptide or peptide 12” for “peptide”

H-TPGPAYSGREIIYPN-OH [peptide 12]
average suppression percentage (suppressor phenotype) [1]: 64% | CD8+ T cell activation (LcK phosphorylation, p-LcK) [2]: greatest effect in the activation of CD8+ T cells | suppressor activity acquired by stimulated CD8+ T cells (suppression of CD4+ T cell proliferation) [3]: acquired suppressor activity at the same extant as those activated with full-length CEACAM5 | phosphorylation of CD8-associated LcK kinase [4]: induce phosphorylation of CD8-associated LcK kinase | IL10 production [5]: increased IL10

H-GTQQATPGPAYSGRE-OH [peptide 11]
CD8+ T cell activation (LcK phosphorylation, p-LcK) [2]: induced phosphorylation of LcK at after 10 minutes

H-IGYVIGTQQATPGPA-OH [peptide 10]
CD8+ T cell activation (LcK phosphorylation, p-LcK) [2]: induced phosphorylation of LcK at after 10 minutes

TQQATPGPAYSGREIITPNA (Fragment of the CEACAM5 N-terminal domain) [peptide d]
suppressor activity acquired by stimulated CD8+ T cells (suppression of CD4+ T cell proliferation) [3]: acquiring suppressor activity to the same extent as cells activated with peptide 12

H-YSGREIIYPNASLLI-OH [peptide 13]
percent suppression of CD4+ T cell proliferation (suppressive activity) [3]: ~10%

H-ASLLIQNIIQNDTGF-OH [peptide 15]
percent suppression of CD4+ T cell proliferation (suppressive activity) [3]: ~10%

GYVIGTQQATPGPAYSGREI (Fragment of the CEACAM5 N-terminal domain) [peptide c]
suppressor activity acquired by stimulated CD8+ T cells (suppression of CD4+ T cell proliferation) [3]: acquired suppressor activity

B1: CEACAM5: carcinoembryonic antigen family member 5 (GenBank Accession No. NP_001278413), full-length purified glycoprotein used as comparator (protein)
chain: KLTIESTPFNVAEGKEVLLLVHNLPQHLFGYSWYKGERVDGNRQIIGYVIGTQQATPGPAYSGREIIYPNASLLIQNIIQNDTGFYTLHVIKSDLVNEEATGQFRVYPELPKPSISSNNSKPVEDKDAVAFTCEPETQDATYLWWVNNQSLPVSPRLQLSNGNRTLTLFNVTRNDTASYKCETQNPVSARRSDSVILNVLYGPDAPTISPLNTSYRSGENLNLSCHAASNPPAQYSWFVNGTFQQSTQELFIPNITVNNSGSYTCQAHNSDTGLNRTTVTTITVYEPPKPFITSNNSNPVEDEDAVALTCEPEIQNTTYLWWVNNQSLPVSPRLQLSNDNRTLTLLSVTRNDVGPYECGIQNELSVDHSDPVILNVLYGPDDPTISPSYTYYRPGVNLSLSCHAASNPPAQYSWLIDGNIQQHTQELFISNITEKNSGLYTCQANNSASGHSRTTVKTITVSAELPKPSISSNNSKPVEDKDAVAFTCEPEAQNTTYLWWVNGQSLPVSPRLQLSNGNRTLTLFNVTRNDARAYVCGIQNSVSANRSDPVTLDVLYGPDTPIISPPDSSYLSGANLNLSCHSASNPSPQYSWRINGIPQQHTQVLFIAKITPNNNGTYACFVSNLATGRNNSIVKSITVSASGTSPGLSA
average suppression percentage (suppressor phenotype) [1]: 63% | suppressive function of lamina propria CD8+ T cells ([1]; Crohn's disease, CD8+ T cells incubated 3 days): stimulates the suppressive function | suppressive function of lamina propria CD8+ T cells [6]: increased suppressive function | phosphorylation of CD8-associated LcK kinase [4]: induce phosphorylation of CD8-associated LcK kinase | IL10 production [5]: increased IL10

From patent US20170189484A1, “CEACAM5 PEPTIDES FOR CROHN'S DISEASE” (ICAHN SCHOOL OF MEDICINE AT MOUNT SINAI, priority 2014, published 2017)
